Results reported in patent publication EP4198126B1 (priority 2021, dated 2023).
Where two headings read alike, the source gives them in different places.

Assays:
HEK293 eTLR cells [1] = conditions: for HDR rates: compounds added 24 hours post-transfection, FACS 72 h after transfection, Figure 2A
[2] = test system: CRISPR-mediated homology-directed repair (HDR); conditions: description of the known compound; cited from earlier work
HEK293 eTLR cells [3] = conditions: treated four hours before transfection; FACS 72 h after transfection; Figure 3

Row | Compound | HDR rates (HEK293 eTLR cells [1]) | enhancement of CRISPR-mediated homology-directed repair (HDR) [2] | HDR rates (HEK293 eTLR cells [3]) | concentration at which the HDR rates are maximally increased (HEK293 eTLR cells [1]; range tested 0.5 to 2 µM, Figure 2B) [µM]
1 | NU7441 | increased HDR rates | – | – | –
2 | c1cnccn1 [SCR7 pyrazine] | – | up to 19 fold | – | –
3 | Cc1cc2ncnn2cc1Nc1ncc2c(n1)n(C1CCOCC1)c(=O)n2C [AZD-7648] | increased HDR rates | – | significantly higher HDR rates than ITD Alt-R HDR Enhancer V2 | 0.5
4 | COc1ccc([C@@H](O)c2cc(-c3ncnc4cc(N5CCOCC5)ccc34)c(F)cc2Cl)nn1 [M3814] | increased HDR rates | – | significantly higher HDR rates than ITD Alt-R HDR Enhancer V2 | –
